In patent US6020521A, “Macrolide LHRH antagonists” (Abbott Laboratories, priority 1998, dated 2000):

Biological target: T1, LHRH rat pituitary receptor (Rattus norvegicus, UniProt P30969)
T1 construct: from tissue; host or cells: rat pituitary
T1 sequence (P30969 1-327): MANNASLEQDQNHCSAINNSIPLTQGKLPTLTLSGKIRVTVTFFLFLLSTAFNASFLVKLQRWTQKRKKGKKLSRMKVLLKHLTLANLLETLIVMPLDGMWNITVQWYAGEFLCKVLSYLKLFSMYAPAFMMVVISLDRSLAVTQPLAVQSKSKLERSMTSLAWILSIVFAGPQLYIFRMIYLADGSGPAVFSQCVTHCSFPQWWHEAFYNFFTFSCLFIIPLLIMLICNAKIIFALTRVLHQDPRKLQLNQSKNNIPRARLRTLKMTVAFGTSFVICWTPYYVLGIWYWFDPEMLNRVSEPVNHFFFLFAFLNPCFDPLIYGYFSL
Assay: LHRH rat pituitary receptor binding (pKI)
Conditions: receptor binding affinity, negative logarithm of the equilibrium dissociation constants
Protocol: Representative compounds of the present invention were evaluated in in vitro tests for LHRH rat pituitary receptor binding (pKI) and for LH inhibition from rat pituitary cells for antagonist potency (pA2). The tests employed the methods detailed in F. Haviv, et al. J. Med. Chem., 32: 2340-2344 (1989). The receptor binding affinity (pKI) is the negative logarithm of the equilibrium dissociation constants.

`CC[C@H]1OC(=O)[C@H](C)[C@@H](OC(=O)N2C(=O)OC[C@@H]2C)[C@H](C)[C@@H](O[C@@H]2O[C@H](C)C[C@H](N(C)C3CCCCC3)[C@H]2O)[C@](C)(OC)C[C@@H](C)C(=O)[C@H](C)[C@H]2N(CCc3ccc(Cl)cc3)C(=O)O[C@]12C` [Example 26, 11-Deoxy-11-[carboxy(4-chlorophenethyl)amino]-3-O-[4-(S)-methyl-oxazolidin-2-one]carbamoyl-5-O-(3'-N-desmethyl-3'-N-cyclohexyl)desosaminyl-6-O-methyl-erythronolide A 11,12-(cyclic carbamate)] and `CC[C@H]1OC(=O)[C@H](C)[C@@H](OC(=O)N2C(=O)OC[C@@H]2C)[C@H](C)[C@@H](O[C@@H]2O[C@H](C)C[C@H](N(C)C3CCCC3)[C@H]2O)[C@](C)(OC)C[C@@H](C)C(=O)[C@H](C)[C@H]2N(CCc3ccc(F)cc3)C(=O)O[C@]12C` [Example 30, 11-Deoxy-11-[carboxy(4-fluorophenethyl)amino]-3-O-[4-(S)-methyl-oxazolidin-2-one]carbamoyl-5-O-(3'-N-desmethyl-3'-N-cyclopentyl)desosaminyl-6-O-methyl-erythronolide A 11,12-(cyclic carbamate)] are within 1.5-fold of each other in Ki: 0.166 nM for the first, 0.129 nM for the second.

Going from `CC[C@H]1OC(=O)[C@H](C)[C@@H](OC(=O)N2C(=O)OC[C@@H]2C)[C@H](C)[C@@H](O[C@@H]2O[C@H](C)C[C@H](N(C)CC3CC3)[C@H]2O)[C@](C)(OC)C[C@@H](C)C(=O)[C@H](C)[C@H]2N(CCc3ccc(F)cc3)C(=O)O[C@]12C` [Example 28, 11-Deoxy-11-[carboxy(4-fluorophenethyl)amino]-3-O-[4-(S)-methyl-oxazolidin-2-one]carbamoyl-5-O-(3'-N-desmethyl-3'-N-cyclopropylmethyl)desosaminyl-6-O-methyl-erythronolide A 11,12-(cyclic carbamate)] to `CC[C@H]1OC(=O)[C@H](C)[C@@H](OC(=O)N2C(=O)OC[C@@H]2C)[C@H](C)[C@@H](O[C@@H]2O[C@H](C)C[C@H](N(C)C3CCC3)[C@H]2O)[C@](C)(OC)C[C@@H](C)C(=O)[C@H](C)[C@H]2N(CCc3ccc(F)cc3)C(=O)O[C@]12C` [Example 29, 11-Deoxy-11-[carboxy(4-fluorophenethyl)amino]-3-O-[4-(S)-methyl-oxazolidin-2-one]carbamoyl-5-O-(3'-N-desmethyl-3'-N-cyclobutyl)desosaminyl-6-O-methyl-erythronolide A 11,12-(cyclic carbamate)], the Ki falls from 0.316 nM to 0.105 nM (3-fold). The second binds more tightly here.

Going from `CCCN(C)[C@H]1C[C@@H](C)O[C@@H](O[C@@H]2[C@@H](C)[C@H](OC(=O)N3C(=O)OC[C@@H]3C)[C@@H](C)C(=O)O[C@H](CC)[C@@]3(C)OC(=O)N(CCc4ccc(F)cc4)[C@@H]3[C@@H](C)C(=O)[C@H](C)C[C@@]2(C)OC)[C@@H]1O` [Example 31, 11-Deoxy-11-[carboxy(4-fluorophenethyl)amino]-3-O-[4-(S)-methyl-oxazolidin-2-one]carbamoyl-5-O-(3'-N-desmethyl-3'-N-n-propyl)desosaminyl-6-O-methyl-erythronolide A 11,12-(cyclic carbamate)] to `CC[C@H]1OC(=O)[C@H](C)[C@@H](OC(=O)N2C(=O)OC[C@@H]2C)[C@H](C)[C@@H](O[C@@H]2O[C@H](C)C[C@H](N(C)C(C)C)[C@H]2O)[C@](C)(OC)C[C@@H](C)C(=O)[C@H](C)[C@H]2N(CCc3ccc(F)cc3)C(=O)O[C@]12C` [Example 32, 11-Deoxy-11-[carboxy(4-fluorophenethyl)amino]-3-O-[4-(S)-methyl-oxazolidin-2-one]carbamoyl-5-O-(3'-N-desmethyl-3'-N-isopropyl)desosaminyl-6-O-methyl-erythronolide A 11,12-(cyclic carbamate)], the Ki falls from 0.955 nM to 0.155 nM (6.2-fold).

Compared with `CC[C@H]1OC(=O)[C@H](C)[C@@H](OC(=O)N2C(=O)OC[C@@H]2C)[C@H](C)[C@@H](O[C@@H]2O[C@H](C)C[C@H](N(C)C3CCC3)[C@H]2O)[C@](C)(OC)C[C@@H](C)C(=O)[C@H](C)[C@H]2N(CCc3ccc(F)c(Cl)c3)C(=O)O[C@]12C` [Example 34, 11-Deoxy-11-[carboxy(3-chloro-fluorophenethyl)amino]-3-O-[4-(S)-methyl-oxazolidin-2-one]carbamoyl-5-O-(3'-N-desmethyl-3'-N-cyclobutyl)desosaminyl-6-O-methyl-erythronolide A 11,12-(cyclic carbamate)], `CC[C@H]1OC(=O)[C@H](C)[C@@H](OC(=O)N2C(=O)OC[C@@H]2C)[C@H](C)[C@@H](O[C@@H]2O[C@H](C)C[C@H](N(C)C3CCCC3)[C@H]2O)[C@](C)(OC)C[C@@H](C)C(=O)[C@H](C)[C@H]2N(CCc3ccc(F)c(Cl)c3)C(=O)O[C@]12C` [Example 35, 11-Deoxy-11-[carboxy(3-chloro-4-fluorophenethyl)amino]-3-O-[4-(S)-methyl-oxazolidin-2-one]carbamoyl-5-O-(3'-N-desmethyl-3'-N-cyclopentyl)desosaminyl-6-O-methyl-erythronolide A 11,12-(cyclic carbamate)] is 10-fold higher in Ki: 0.0832 nM for the first, 0.851 nM for the second.

`CC[C@H]1OC(=O)[C@H](C)[C@@H](OC(=O)N2C(=O)OC[C@@H]2C)[C@H](C)[C@@H](O[C@@H]2O[C@H](C)C[C@H](N(C)CC3CC3)[C@H]2O)[C@](C)(OC)C[C@@H](C)C(=O)[C@H](C)[C@H]2N(CCc3ccc(Cl)c(F)c3)C(=O)O[C@]12C` [Example 36, 11-Deoxy-11-[carboxy(4-chloro-3-fluorophenethyl)amino]-3-O-[4-(S)-methyl-oxazolidin-2-one]carbamoyl-5-O-(3'-N-desmethyl-3'-N-cyclopropylmethyl)desosaminyl-6-O-methyl-erythronolide A 11,12-(cyclic carbamate)] and `CC[C@H]1OC(=O)[C@H](C)[C@@H](OC(=O)N2C(=O)OC[C@H]2C)[C@H](C)[C@@H](O[C@@H]2O[C@H](C)C[C@H](N(C)CC3CC3)[C@H]2O)[C@](C)(OC)C[C@@H](C)C(=O)[C@H](C)[C@H]2N(CCc3ccc(Cl)c(Cl)c3)C(=O)O[C@]12C` [Example 37, 11-Deoxy-11-[carboxy(3,4-dichlorophenethyl)amino]-3-O-[4-(R)-methyl-oxazolidin-2-one]carbamoyl-5-O-(3'-N-desmethyl-3'-N-cyclopropylmethyl)desosaminyl-6-O-methyl-erythronolide A 11,12-(cyclic carbamate)] are within 1.5-fold of each other in Ki: 3.72 nM for the first, 5.37 nM for the second.

In the case of `CC[C@H]1COC(=O)N1C(=O)O[C@H]1[C@H](C)[C@@H](O[C@@H]2O[C@H](C)C[C@H](N(C)CC3CC3)[C@H]2O)[C@](C)(OC)C[C@@H](C)C(=O)[C@H](C)[C@H]2N(CCc3ccc(Cl)c(Cl)c3)C(=O)O[C@]2(C)[C@@H](CC)OC(=O)[C@@H]1C` [Example 38, 11-Deoxy-11-[carboxy(3,4-dichlorophenethyl)amino]-3-O-[4-(S)-ethyl-oxazolidin-2-one]carbamoyl-5-O-(3'-N-desmethyl-3'-N-cyclopropylmethyl)desosaminyl-6-O-methyl-erythronolide A 11,12-(cyclic carbamate)], the Ki is reported as 6.76 nM.

`CCCN(C)[C@H]1C[C@@H](C)O[C@@H](O[C@@H]2[C@@H](C)[C@H](OC(=O)N3C(=O)OC[C@@H]3C)[C@@H](C)C(=O)O[C@H](CC)[C@@]3(C)OC(=O)N(CCc4ccc(Cl)cc4)[C@@H]3[C@@H](C)C(=O)[C@H](C)C[C@@]2(C)OC)[C@@H]1O` [Example 27, 11-Deoxy-11-carboxy(4-chlorophenethyl)amino]-3-O-[4-(S)-methyl-oxazolidin-2-one]carbamoyl-5-O-(3'-N-desmethyl-3'-N-n-propyl)desosaminyl-6-O-methyl-erythronolide A 11,12-(cyclic carbamate)] was tested, and the “p KI” value was 9.60.
